The target of the first assay is HIV reverse transcriptase (Human immunodeficiency virus type 1 group M subtype B, UniProt P03366). Put plainly: Reverse transcriptase scintillation proximity assay (Example 4, Table 2). Type of assay: biochemical. Conditions: 10 μM inhibitor; relative to dimethyl sulfoxide = 100%; 3 min, 10 µM. As for the experimental part: Reverse transcriptase ("RT") activity is measured using a scintillation proximity assay kit available from Amersham Life Sciences, Inc., which uses a biotin/streptavidin bead capture system. RNA-dependent polymerase activity is measured using purified […] and a synthetic 17mer/50mer RNA-DNA template-primer containing biotin at the 5' end of the DNA. The template-primer, buffer, dNTP, and inhibitor are incubated for 10 minutes at 37° C. before the RT is added. The final 100 μl reaction mixture contains: 39 nm of template primer, buffer (40 mM tris HCl at pH 8.0, 10 mM MgCl2, 60 mM KCl, 10 mM dithiothreitol); 75 nM of each dNTP except dTTP; 25 nM dTTP and 35 nM tritium labeled d*TTP; 10 μM inhibitor; and 1.0-2.0 μg of RT. After three minute incubation, the reaction is quenched with 40 μl of 0.56M EDTA. Then 10 μl of streptavidin SPA beads (in suspension) are added and incubated at 37° C. for 10 minutes. Finally, 850 μl of a buffer containing 10 mM Tris HCl pH 7.4 and 0.15M NaCl is added. The signal is produced by biotinylated polymers incorporating d*TTP binding to the streptavidin beads which stimulate the scintillant. The amount of d*TTP incorporated in the polymer is measured with a scintillation counter.
Compounds showing good inhibition will give a low number of counts/min (cpm). This number is related to a standard, dimethyl sulfoxide, which is given an arbitrary 100% relative activity. All cpm data in a single run are given a percent of this standard.
In the case of `O=C(O)c1ccc(N=Nc2c(S(=O)(=O)O)cc3cc(NC(=O)c4ccc(C(=O)Nc5ccc6c(O)c(N=Nc7ccc(C(=O)O)cc7)c(S(=O)(=O)O)cc6c5)cc4)ccc3c2O)cc1` [Compound 162], the “% RT activity remaining at 10 μM” value was determined as 5.9%.
For the compound `O=C(O)c1ccc(N=Nc2c(S(=O)(=O)O)cc3cc(NC(=O)c4ccc(C(=O)Nc5ccc6c(O)c(N=Nc7ccc(C(=O)O)cc7)c(S(=O)(=O)O)cc6c5)cc4)ccc3c2O)cc1` [Compound 169], the “% RT activity remaining at 10 μM” value is “.15%”.

Staying with this assay, now noted: 0.05 h, 10 μM inhibitor; relative to dimethyl sulfoxide = 100%; read-out: % RT activity remaining at 10 μM.
Consider `O=C(O)c1ccc(N=Nc2c(S(=O)(=O)O)cc3cc(NC(=O)c4cc(=O)cc(C(=O)Nc5ccc6c(O)c(N=Nc7ccc(C(=O)O)cc7)c(S(=O)(=O)O)cc6c5)o4)ccc3c2O)cc1` [Compound 132], for which the remaining activity – broadly, the signal under treatment as a percentage of the control signal – at 10 µM was 0.19%.
For `O=C(O)Cc1ccc(N=Nc2c(S(=O)(=O)O)cc3cc(NC(=O)c4cc(=O)cc(C(=O)Nc5ccc6c(O)c(N=Nc7ccc(CC(=O)O)cc7)c(S(=O)(=O)O)cc6c5)o4)ccc3c2O)cc1` [Compound 133], the remaining activity at 10 µM worked out at 0.4%.
The same measure, in the same setting: then `O=C(O)CCc1ccc(N=Nc2c(S(=O)(=O)O)cc3cc(NC(=O)c4cc(=O)cc(C(=O)Nc5ccc6c(O)c(N=Nc7ccc(CCC(=O)O)cc7)c(S(=O)(=O)O)cc6c5)o4)ccc3c2O)cc1` [Compound 134], with 0.25%.
Still for that read-out and setting: the same measure for `O=C(O)CCCCCc1ccc(N=Nc2c(S(=O)(=O)O)cc3cc(NC(=O)c4cc(=O)cc(C(=O)Nc5ccc6c(O)c(N=Nc7ccc(CCCCCC(=O)O)cc7)c(S(=O)(=O)O)cc6c5)o4)ccc3c2O)cc1` [Compound 135]: 0.16%; for `O=C(O)/C=C/c1ccc(N=Nc2c(S(=O)(=O)O)cc3cc(NC(=O)c4cc(=O)cc(C(=O)Nc5ccc6c(O)c(N=Nc7ccc(/C=C/C(=O)O)cc7)c(S(=O)(=O)O)cc6c5)o4)ccc3c2O)cc1` [Compound 137]: 0.53%.
As to `COc1cc(C(=O)O)ccc1N=Nc1c(S(=O)(=O)O)cc2cc(NC(=O)c3cc(=O)cc(C(=O)Nc4ccc5c(O)c(N=Nc6ccc(C(=O)O)cc6OC)c(S(=O)(=O)O)cc5c4)o3)ccc2c1O` [Compound 139], the remaining activity at 10 µM was 0.34%.
The same measure, in the same setting: the same measure for `O=C(O)c1cc(N=Nc2c(S(=O)(=O)O)cc3cc(NC(=O)c4cc(=O)cc(C(=O)Nc5ccc6c(O)c(N=Nc7cc(C(=O)O)cc(C(=O)O)c7)c(S(=O)(=O)O)cc6c5)o4)ccc3c2O)cc(C(=O)O)c1` [Compound 143]: 0.23%; for `Cc1cc(C(=O)O)ccc1N=Nc1c(S(=O)(=O)O)cc2cc(NC(=O)c3cc(=O)cc(C(=O)Nc4ccc5c(O)c(N=Nc6ccc(C(=O)O)cc6C)c(S(=O)(=O)O)cc5c4)o3)ccc2c1O` [Compound 144]: 0.26%.
Still for that read-out and setting: then `O=C(Nc1ccc2c(O)cc(S(=O)(=O)O)cc2c1)c1cc(O)cc(C(=O)Nc2ccc3c(O)cc(S(=O)(=O)O)cc3c2)n1` [Compound 145], with 47%; and `O=C(O)Cc1ccc(N=Nc2c(S(=O)(=O)O)cc3cc(NC(=O)c4cc(O)cc(C(=O)Nc5ccc6c(O)c(N=Nc7ccc(CC(=O)O)cc7)c(S(=O)(=O)O)cc6c5)n4)ccc3c2O)cc1` [Compound 147], with 0.3%.
Still for that read-out and setting: then `O=C(O)c1cccc(N=Nc2c(S(=O)(=O)O)cc3cc(NC(=O)c4cc(O)cc(C(=O)Nc5ccc6c(O)c(N=Nc7cccc(C(=O)O)c7)c(S(=O)(=O)O)cc6c5)n4)ccc3c2O)c1` [Compound 150], with 0.6%; and `O=C(O)/C=C/c1ccc(N=Nc2c(S(=O)(=O)O)cc3cc(NC(=O)c4cc(O)cc(C(=O)Nc5ccc6c(O)c(N=Nc7ccc(/C=C/C(=O)O)cc7)c(S(=O)(=O)O)cc6c5)n4)ccc3c2O)cc1` [Compound 151], with 0.2%.
Regarding `COc1cc(C(=O)O)ccc1N=Nc1c(S(=O)(=O)O)cc2cc(NC(=O)c3cc(O)cc(C(=O)Nc4ccc5c(O)c(N=Nc6ccc(C(=O)O)cc6OC)c(S(=O)(=O)O)cc5c4)n3)ccc2c1O` [Compound 153], the remaining activity at 10 µM was determined as 0.15%.
The same measure, in the same setting: the same measure for `COc1cc(N=Nc2c(S(=O)(=O)O)cc3cc(NC(=O)c4cc(O)cc(C(=O)Nc5ccc6c(O)c(N=Nc7cc(OC)c(OC)c(OC)c7C(=O)O)c(S(=O)(=O)O)cc6c5)n4)ccc3c2O)c(C(=O)O)c(OC)c1OC` [Compound 156]: 15%.
For the compound `O=C(Nc1ccc2c(O)cc(S(=O)(=O)O)cc2c1)c1ccc(C(=O)Nc2ccc3c(O)cc(S(=O)(=O)O)cc3c2)cc1` [Compound 160], the remaining activity at 10 µM turned out to be 74%.
Still for that read-out and setting: the same measure for `O=C(O)/C=C/c1ccc(N=Nc2c(S(=O)(=O)O)cc3cc(NC(=O)c4ccc(C(=O)Nc5ccc6c(O)c(N=Nc7ccc(/C=C/C(=O)O)cc7)c(S(=O)(=O)O)cc6c5)cc4)ccc3c2O)cc1` [Compound 161]: 25%.
Take `O=C(O)Cc1ccc(N=Nc2c(S(=O)(=O)O)cc3cc(NC(=O)c4ccc(C(=O)Nc5ccc6c(O)c(N=Nc7ccc(CC(=O)O)cc7)c(S(=O)(=O)O)cc6c5)cc4)ccc3c2O)cc1` [Compound 163]: the remaining activity at 10 µM is 0.1%.
`O=C(O)CCc1ccc(N=Nc2c(S(=O)(=O)O)cc3cc(NC(=O)c4ccc(C(=O)Nc5ccc6c(O)c(N=Nc7ccc(CCC(=O)O)cc7)c(S(=O)(=O)O)cc6c5)cc4)ccc3c2O)cc1` [Compound 164]: the remaining activity at 10 µM is 0.15%.
Turning to `O=C(O)CCCc1ccc(N=Nc2c(S(=O)(=O)O)cc3cc(NC(=O)c4ccc(C(=O)Nc5ccc6c(O)c(N=Nc7ccc(CCCC(=O)O)cc7)c(S(=O)(=O)O)cc6c5)cc4)ccc3c2O)cc1` [Compound 165], the remaining activity at 10 µM came to 3.7%.
Turning to `O=C(O)CC(C(=O)O)c1ccc(N=Nc2c(S(=O)(=O)O)cc3cc(NC(=O)c4ccc(C(=O)Nc5ccc6c(O)c(N=Nc7ccc(C(CC(=O)O)C(=O)O)cc7)c(S(=O)(=O)O)cc6c5)cc4)ccc3c2O)cc1` (centres unmarked) [Compound 166], the remaining activity at 10 µM was 0.14%.
Same read-out and setting: the same measure for `COc1cc(C(=O)O)ccc1N=Nc1c(S(=O)(=O)O)cc2cc(NC(=O)c3ccc(C(=O)Nc4ccc5c(O)c(N=Nc6ccc(C(=O)O)cc6OC)c(S(=O)(=O)O)cc5c4)cc3)ccc2c1O` [Compound 167]: 0.26%.
On the same count and under the same terms, then `Cc1cc(C(=O)O)ccc1N=Nc1c(S(=O)(=O)O)cc2cc(NC(=O)c3ccc(C(=O)Nc4ccc5c(O)c(N=Nc6ccc(C(=O)O)cc6C)c(S(=O)(=O)O)cc5c4)cc3)ccc2c1O` [Compound 168], with 0.5%; and `O=C(O)c1cccc(N=Nc2c(S(=O)(=O)O)cc3cc(NC(=O)c4ccc(C(=O)Nc5ccc6c(O)c(N=Nc7cccc(C(=O)O)c7)c(S(=O)(=O)O)cc6c5)cc4)ccc3c2O)c1` [Compound 170], with 0.1%; and `O=C(Nc1ccc2c(O)c(N=Nc3cc(F)c(F)c(C(=O)O)c3F)c(S(=O)(=O)O)cc2c1)c1ccc(C(=O)Nc2ccc3c(O)c(N=Nc4cc(F)c(F)c(C(=O)O)c4F)c(S(=O)(=O)O)cc3c2)cc1` [Compound 171], with 0.15%.
The same measure, in the same setting: the same measure for `O=C(O)c1ccc(Cl)c(N=Nc2c(S(=O)(=O)O)cc3cc(NC(=O)c4ccc(C(=O)Nc5ccc6c(O)c(N=Nc7cc(C(=O)O)ccc7Cl)c(S(=O)(=O)O)cc6c5)cc4)ccc3c2O)c1` [Compound 172]: 0.08%.
As for `O=C(O)c1ccc(C(=O)O)c(N=Nc2c(S(=O)(=O)O)cc3cc(NC(=O)c4ccc(C(=O)Nc5ccc6c(O)c(N=Nc7cc(C(=O)O)ccc7C(=O)O)c(S(=O)(=O)O)cc6c5)cc4)ccc3c2O)c1` [Compound 173], the remaining activity at 10 µM was found to be 27%.
Same read-out and setting: the same measure for `CC(=O)Nc1ccc(N=Nc2c(S(=O)(=O)O)cc3cc(NC(=O)c4ccc(C(=O)Nc5ccc6c(O)c(N=Nc7ccc(NC(C)=O)cc7)c(S(=O)(=O)O)cc6c5)cc4)ccc3c2O)cc1` [Compound 174]: 28%.
On to `COc1cc(N=Nc2c(S(=O)(=O)O)cc3cc(NC(=O)c4ccc(C(=O)Nc5ccc6c(O)c(N=Nc7cc(OC)c(OC)c(OC)c7)c(S(=O)(=O)O)cc6c5)cc4)ccc3c2O)cc(OC)c1OC` [Compound 175], for which the remaining activity at 10 µM amounted to 62%.
On the same count and under the same terms, then `COc1ccc(N=Nc2c(S(=O)(=O)O)cc3cc(NC(=O)c4ccc(C(=O)Nc5ccc6c(O)c(N=Nc7ccc(OC)cc7)c(S(=O)(=O)O)cc6c5)cc4)ccc3c2O)cc1` [Compound 176], with 60%.
The same measure, in the same setting: then `COc1cc(C(=O)O)c(N=Nc2c(S(=O)(=O)O)cc3cc(NC(=O)c4ccc(C(=O)Nc5ccc6c(O)c(N=Nc7c(C(=O)O)cc(OC)c(OC)c7OC)c(S(=O)(=O)O)cc6c5)cc4)ccc3c2O)c(OC)c1OC` [Compound 177], with 0.17%; and `O=C(O)c1cc(N=Nc2c(S(=O)(=O)O)cc3cc(NC(=O)c4ccc(C(=O)Nc5ccc6c(O)c(N=Nc7cc(C(=O)O)cc(C(=O)O)c7)c(S(=O)(=O)O)cc6c5)cc4)ccc3c2O)cc(C(=O)O)c1` [Compound 178], with 91%.
Still for that read-out and setting: then `COc1cc(N=Nc2c(S(=O)(=O)O)cc3cc(NC(=O)c4ccc(C(=O)Nc5ccc6c(O)c(N=Nc7cc(OC)c(OC)cc7C(=O)O)c(S(=O)(=O)O)cc6c5)cc4)ccc3c2O)c(C(=O)O)cc1OC` [Compound 179], with 7.5%.

The same assay, now with this note: read-out: IC50 (RT activity).
For the compound `O=C(Nc1ccc2c(O)c(N=Nc3ccc(-c4nnn[nH]4)cc3)c(S(=O)(=O)O)cc2c1)Nc1ccc2c(O)c(N=Nc3ccc(-c4nnn[nH]4)cc3)c(S(=O)(=O)O)cc2c1` [Compound 159], the IC50 (as a rule, the point on the concentration scale where inhibition reaches its midpoint) is 220 nM.

For the origin of these results see patent US6140368A, “Naphthols useful in antiviral methods” (The Regents of the University of California, priority 1998, dated 2000).
